Assay results published in publication PMC7323874, “Vancomycin Resistance Is Overcome by Conjugation of Polycationic Peptides” (Angewandte Chemie (International Ed. in English), 2020).

Tests used:
[1] = system: Staphylococcus aureus NCTC 10442; assay: Blocking experiments with Nα,Nε-diacetyl-Lys-D-Ala-D-Ala in microdilution; format: cell-based; conditions: at least 100-fold excess of Nα,Nε-Diacetyl-Lys-D-Ala-D-Ala, pre-incubation minimum 1 hour at room temperature
Protocol: (§1) Antimicrobial testing – Microdilution
(§2) Antimicrobial testing was performed according to CLSI and EUCAST guidelines in microdilution.8-10 Therefore, all tested substances as well as controls were dissolved in water in different concentrations and serially diluted in MHB II (cation adjusted) on the 96-well plate. A logarithmic growing, overnight culture of the respective bacterial strain was used and adjusted to a McFarland corresponding to 1 × 10^8 cfu/ml. Afterwards the bacterial suspension was diluted to 1 ×10^6 cfu/ml and loaded on the 96-well polypropylene plates, resulting in a final bacterial concentration of 5 × 10^5 cfu/ml. After an incubation at 35 ± 1 °C for 18-20 hours (re-controlled after 24 hours) the MIC was determined as the lowest concentration without visible growth as described previously.11 For direct comparison of the tested substances, all results were calculated in mg/ml and mol/ml afterwards.
For blocking experiments with NΑ,NΕ-DIACETYL-LYS-D-ALA-D-ALA the tested substances were incubated directly on the dilution plate with at least 100-fold excess of Nα,Nε-Diacetyl-Lys-D-Ala-D-Ala for a minimum of 1 hour at room temperature. Afterwards, the procedure was performed as described above. As further control substance, the glycopeptide antibiotic teicoplanin was evaluated. […] Resistance development in S. aureus was determined by passaging bacteria in increasing amounts of vancomycin, FU002 or, as control, fusidic acid. In principle, tubes with twofold dilutions of the compounds in 1 ml Muller Hinton broth were inoculated 1:100 with bacterial suspension. The tubes were then incubated for 24 h at 37 °C under shaking. After each passage, the tube with the highest compound concentration showing bacterial growth was used to inoculate the tubes of the next passage (1:100). The tube with the lowest compound concentration showing no growth was defined as the passage MIC. […]
(§3) For the validation of possible side effects provoked by the conjugates, the cytotoxic effect of the lead candidate FU002 on human cells was assessed in a colorimetric viability assay. […]

E. faecium UL602570* = assay: microbe, parasite or virus in culture; format: cell-based
Protocol: as §1
as §2, with “afterwards. […]” for “afterwards.”
Resistance development in S. aureus was determined by passaging bacteria in increasing amounts of vancomycin, FU002 or, as control, fusidic acid. In principle, tubes with twofold dilutions of the compounds in 1 ml Muller Hinton broth were inoculated 1:100 with bacterial suspension. […]
as §3

Row | Structure (SMILES) | effect of D-Ala-D-Ala binding motif on antibiotic activity [1] | MIC (E. faecium UL602570*; Enterococcus faecium, read-out: MIC of E. faecium UL602570*) [µg/mL] | MIC of E. faecium UL602570* (E. faecium UL602570*; comparison of conjugate, equimolar non-covalent mixture and vancomycin) [µg/mL]
1 | CN[C@H](CC(C)C)C(=O)N[C@H]1C(=O)N[C@@H](CC(N)=O)C(=O)N[C@H]2C(=O)N[C@H]3C(=O)N[C@H](C(=O)N[C@H](C(=O)O)c4cc(O)cc(O)c4-c4cc3ccc4O)[C@H](O)c3ccc(c(Cl)c3)Oc3cc2cc(c3O[C@@H]2O[C@H](CO)[C@@H](O)[C@H](O)[C@H]2O[C@H]2C[C@](C)(N)[C@H](O)[C@H](C)O2)Oc2ccc(cc2Cl)[C@H]1O [vancomycin] | suppresses the antibiotic activity | > 64 | 
2 | CC(C)C[C@H](C(=O)N[C@H]1C(=O)N[C@@H](CC(N)=O)C(=O)N[C@H]2C(=O)N[C@H]3C(=O)N[C@H](C(=O)N[C@H](C(=O)O)c4cc(O)cc(O)c4-c4cc3ccc4O)[C@H](O)c3ccc(c(Cl)c3)Oc3cc2cc(c3O[C@@H]2O[C@H](CO)[C@@H](O)[C@H](O)[C@H]2O[C@H]2C[C@](C)(N)[C@H](O)[C@H](C)O2)Oc2ccc(cc2Cl)[C@H]1O)N(C)C(=O)C1CCC(CN2C(=O)CC(SC[C@H](NC(=O)[C@H](CCCNC(=N)N)NC(=O)[C@H](CCCNC(=N)N)NC(=O)[C@H](CCCNC(=N)N)NC(=O)[C@H](CCCNC(=N)N)NC(=O)[C@H](CCCNC(=N)N)NC(=O)[C@@H](N)CCCNC(=N)N)C(N)=O)C2=O)CC1 (stereo partly shown) [FU002] | preserves its activity |  | 1
